Laboratory results reported in patent US11123355B2, “Antiviral benzyl-amine phosphodiamide compounds” (Merck Sharp & Dohme Corp., priority 2016, dated 2021).
Where two headings read alike, the source gives them in different places.

Assays:
[1] = Prodrug Stability Assay in Bio-Relevant Media (FaSSIF with Pancreatin); assay type: in vitro ADME; details: 0.5 mg/mL Pancreatin in FaSSIF, 37° C.; HPLC peak area of prodrug at 5 h divided by that at 0 h
Procedure: Prodrug Stability Assay in Bio-Relevant Media
The following assay was employed to evaluate the stability of the prodrugs in simulated gastrointestinal tract conditions. Preparation of fasted state simulated intestinal fluid (FaSSIF) using Phares SIF Powder was carried out according to protocols from Phare Drug Delivery AG (Baselland, Switzerland). For sample preparation, 10 μL stock solutions (10 mM) of prodrug substance in DMSO was added to 990 μL of 0.5 mg/mL Pancreatin solution (Fisher CAS #8049-47-6) in FaSSIF. Two samples were prepared for each compound. If the sample was a clear solution, it was directly analyzed by HPLC. If the sample was not clear, the sample was diluted with 100% MeCN, maintained at 37° C. and observed 5 h later. If the sample was clear, HPLC analysis was directly performed. If the sample was still not clear, the sample was diluted with 100% ACN and assayed by HPLC. All the samples were vortexed for 3 min and observed before injection. For the diluted samples, the area is multiplied by a dilution factor when the data is analyzed. The analysis was carried out with an Agilent 1100 series HPLC with autosampler. The column was a Poroshell 120 EC-C18, 4.6×50 mm, 2.7 μm. The flow rate was 1.8 mL/min, and the injection volume was 5 or 10 μL. UV detection was in the range 210-400 nm. The mobile phase consisted of solvent A (water plus 10 mM tetrabutylammonium bromide) and solvent B (acetonitrile) with a gradient of: 90% solvent A at 0 min, changing to 95% solvent B over 6 min, maintaining for 1.5 min, then reverting to 90% solvent A over 1.6 min. The HPLC peak area of the prodrug at 5 h was divided by the HPLC peak area of the prodrug at 0 h, to generate the % claimed parent ratio, which is summarized in Table 2 for gastrointestinal (GI) Tract stability.

HIV-1 (H9/IIB strain) = experiment: Multiple Round HIV-1 Infection Assay (Viking Assay) in MT4-GFP cells; assay type: cell-based; details: inhibition of reproductive ratio R0
How it was run: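 MT-4 cells with tat/rev-dependent GFP reporter infected overnight with virus at MOI ~0.01, then incubated in RPMI with 10% or 50% normal human serum with 10-point 3-fold dilutions (typically 8.4 μM–0.42 nM final). Green cells counted at ~48 and ~72 h to give R0; IC50 from 4-parameter fit of R0 inhibition.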

[2] = Human immunodeficiency virus 1, MT4-GFP cells infected with HIV-1, 10% normal human serum, read-out: Viking, IC50 (10% NHS)
[3] = Human immunodeficiency virus 1, MT4-GFP cells infected with HIV-1, 50% normal human serum, read-out: Viking, IC50 (50% NHS)
[4] = MT4-GFP cells infected with HIV-1, 10% normal human serum, read-out: Viking, IC50 (10% NHS)
[5] = MT4-GFP cells infected with HIV-1, 50% normal human serum, read-out: Viking, IC50 (50% NHS)

Compound | GI Tract stability (%) [1] | IC50 (HIV-1 (H9/IIB strain); [2]) | IC50 (HIV-1 (H9/IIB strain); [3]) | IC50 (HIV-1 (H9/IIB strain); [4]) | IC50 (HIV-1 (H9/IIB strain); [5])
CCCOC(=O)C(C)(C)NP(=O)(CO[C@H](C)Cn1cnc2c(N)ncnc21)N[C@H](C)c1ccc(Cl)cc1 (single isomer, unassigned) [Example 1B] | 98.7% | 4.7 nM | 36 nM |  | 
CCCOC(=O)C(C)(C)NP(=O)(CO[C@H](C)Cn1cnc2c(N)ncnc21)N[C@H](C)c1ccc(OC(F)(F)F)cc1 (single isomer, unassigned) [Example 3B] | 99.4% | 1.8 nM | 8.6 nM |  | 
CCCOC(=O)C(C)(C)NP(=O)(CO[C@H](C)Cn1cnc2c(N)ncnc21)N[C@H](c1ccc(OC(F)(F)F)cc1)C(F)(F)F (some centres unmarked) [Example 4A] | 95.8% |  |  | 3.5 nM | 29 nM
CCCOC(=O)C(C)(C)N[P@@](=O)(CO[C@H](C)Cn1cnc2c(N)ncnc21)NCc1ccc(OC(F)(F)F)cc1 [Example 7A, propyl 2-(((R)-((((R)-1-(6-amino-9H-purin-9-yl)propan-2-yl)oxy)methyl)((4-(trifluoromethoxy)benzyl)amino)phos-phoryl)amino)-2-methylpropanoate and propyl 2-(((S)-((((R)-1-(6-amino-9H-purin-9-yl)propan-2-yl)oxy)methyl)((4-(trifluoromethoxy)benzyl)amino)phos-phoryl)amino)-2-methylpropanoate] | 96.0% |  |  | 4.5 nM | 27 nM
isopropyl 2-(((R)-((((R)-1-(6-amino-9H- purin-9-yl)propan-2-yl)oxy)methyl)((2-(4- chlorophenyl)propan-2- yl)amino)phosphoryl)amino)-2- methylpropanoate and isopropyl 2-(((S)-((((R)-1-(6-amino-9H- purin-9-yl)propan-2-yl)oxy)methyl)((2-(4- chlorophenyl)propan-2- yl)amino)phosphoroyl)amino)-2- methylpropanoate [Example 36B] |  |  |  | 200 nM | 1100 nM
propyl 2-(((R)-((((R)-1-(6-amino-9H-purin- 9-yl)propan-2-yl)oxy)methyl)((3- fluorobenzyl)amino)phosphoryl)amino)-2- methylpropanoate and propyl 2-(((S)-((((R)-1-(6-amino-9H-purin- 9-yl)propan-2-yl)oxy)methyl)((3- fluorobenzyl)amino)phosphoryl)amino)-2- methylpropanoate [Example 8A] |  |  |  | 110 nM | 680 nM
propyl 2-(((R)-((((R)-1-(6-amino-9H-purin- 9-yl)propan-2-yl)oxy)methyl)((3- fluorobenzyl)amino)phosphoryl)amino)-2- methylpropanoate and propyl 2-(((S)-((((R)-1-(6-amino-9H-purin- 9-yl)propan-2-yl)oxy)methyl)((3- fluorobenzyl)amino)phosphoryl)amino)-2- methylpropanoate [Example 8B] |  |  |  | 76 nM | 680 nM
propyl 2-(((R)-((((R)-1-(6-amino-9H-purin- 9-yl)propan-2-yl)oxy)methyl)((4- cyanobenzyl)amino)phosphoryl)amino)-2- methylpropanoate and propyl 2-(((S)-((((R)-1-(6-amino-9H-purin- 9-yl)propan-2-yl)oxy)methyl)((4- cyanobenzyl)amino)phosphoryl)amino)-2- methylpropanoate [Example 6A] |  |  |  | 70 nM | 660 nM
propyl 2-(((R)-((((R)-1-(6-amino-9H-purin- 9-yl)propan-2-yl)oxy)methyl)((4- cyanobenzyl)amino)phosphoryl)amino)-2- methylpropanoate and propyl 2-(((S)-((((R)-1-(6-amino-9H-purin- 9-yl)propan-2-yl)oxy)methyl)((4- cyanobenzyl)amino)phosphoryl)amino)-2- methylpropanoate [Example 6B] |  |  |  | 250 nM | 850 nM
propyl 2-(((R)-((((R)-1-(6-amino-9H-purin- 9-yl)propan-2-yl)oxy)methyl)((4- isopropylbenzyl)amino)phosphoryl)amino)- 2-methylpropanoate and propyl 2-(((S)-((((R)-1-(6-amino-9H-purin- 9-yl)propan-2-yl)oxy)methyl)((4- isopropylbenzyl)amino)phosphoryl)amino)- 2-methylpropanoate [Example 5B] |  |  |  | 48 nM | 240 nM
propyl 2-(((R)-((((R)-1-(6-amino-9H-purin- 9-yl)propan-2-yl)oxy)methyl)(((R)-1-(4- cyanophenyl)-2,2,2- trifluoroethyl)amino)phosphoryl)amino)-2- methylpropanoate and propyl 2-(((S)-((((R)-1-(6-amino-9H-purin- 9-yl)propan-2-yl)oxy)methyl)(((R)-1-(4- cyanophenyl)-2,2,2- trifluoroethyl)amino)phosphoryl)amino)-2- methylpropanoate [Example 23A] |  |  |  | 6.1 nM | 37 nM
propyl 2-(((R)-((((R)-1-(6-amino-9H-purin- 9-yl)propan-2-yl)oxy)methyl)(((R)-1-(4- cyanophenyl)-2,2,2- trifluoroethyl)amino)phosphoryl)amino)-2- methylpropanoate and propyl 2-(((S)-((((R)-1-(6-amino-9H-purin- 9-yl)propan-2-yl)oxy)methyl)(((R)-1-(4- cyanophenyl)-2,2,2- trifluoroethyl)amino)phosphoryl)amino)-2- methylpropanoate [Example 23B] |  |  |  | 47 nM | 140 nM
propyl 2-(((R)-((((R)-1-(6-amino-9H-purin- 9-yl)propan-2-yl)oxy)methyl)(((R)-1-(p- tolyl)ethyl)amino)phosphoryl)amino)-2- methylpropanoate and propyl 2-(((S)-((((R)-1-(6-amino-9H-purin- 9-yl)propan-2-yl)oxy)methyl)(((R)-1-(p- tolyl)ethyl)amino)phosphoryl)amino)-2- methylpropanoate [Example 16A] |  |  |  | 83 nM | 440 nM
propyl 2-(((R)-((((R)-1-(6-amino-9H-purin- 9-yl)propan-2-yl)oxy)methyl)(((R)-1-(p- tolyl)ethyl)amino)phosphoryl)amino)-2- methylpropanoate and propyl 2-(((S)-((((R)-1-(6-amino-9H-purin- 9-yl)propan-2-yl)oxy)methyl)(((R)-1-(p- tolyl)ethyl)amino)phosphoryl)amino)-2- methylpropanoate [Example 16B] |  |  |  | 4.6 nM | 27 nM
propyl 2-(((R)-((((R)-1-(6-amino-9H-purin- 9-yl)propan-2-yl)oxy)methyl)(((R)-2,2,2- trifluoro-1-(p- tolyl)ethyl)amino)phosphoryl)amino)-2- methylpropanoate and propyl 2-(((S)-((((R)-1-(6-amino-9H-purin- 9-yl)propan-2-yl)oxy)methyl)(((R)-2,2,2- trifluoro-1-(p- tolyl)ethyl)amino)phosphoryl)amino)-2- methylpropanoate [Example 26B] |  |  |  | 34 nM | 200 nM
propyl 2-(((R)-((((R)-1-(6-amino-9H-purin- 9-yl)propan-2-yl)oxy)methyl)(((S)-1-(p- tolyl)ethyl)amino)phosphoryl)amino)-2- methylpropanoate and propyl 2-(((S)-((((R)-1-(6-amino-9H-purin- 9-yl)propan-2-yl)oxy)methyl)(((S)-1-(p- tolyl)ethyl)amino)phosphoryl)amino)-2- methylpropanoate [Example 18A] |  |  |  | 13 nM | 140 nM
propyl 2-(((R)-((((R)-1-(6-amino-9H-purin- 9-yl)propan-2-yl)oxy)methyl)(((S)-1-(p- tolyl)ethyl)amino)phosphoryl)amino)-2- methylpropanoate and propyl 2-(((S)-((((R)-1-(6-amino-9H-purin- 9-yl)propan-2-yl)oxy)methyl)(((S)-1-(p- tolyl)ethyl)amino)phosphoryl)amino)-2- methylpropanoate [Example 18B] |  |  |  | 37 nM | 520 nM
